From patent US12435023B2, “Crystal form of Treprostinil sodium salt and preparation method therefor” (Shanghai Forefront Pharmaceutical Co., Ltd, priority 2019, dated 2025)
Structures can show the parent of a compound that is named as a salt.

What was measured:
[1] = 60% relative humidity, according to WO2016055819; cited from earlier work
[2] = Water solubility at 25±2° C., dissolution observed within 30 minutes; conditions: for solubility at 30 min: 25 °C, thermodynamic from solid; for Dissolution observed in water: 25±2° C., within 30 minutes, free acid 20 mg in 200 mL, salt forms about 100 mg in 1 mL
Procedure: 20 mg of Treprostinil free acid was weighed and added into a volumetric flask, 200 mL of water was added, and placed in a water bath pot (temperature was controlled at 25±2° C.), shook strongly for 30 seconds every 5 minutes, and the dissolution within 30 minutes was observed.

[3] = Hygroscopicity by dynamic vapor sorption (DVS); type: physicochemical; conditions: for Water content: DVS
Text: Hygroscopicity is one of the key physicochemical properties of drugs and has a significant impact on drug stability, powderological properties and subsequent processing procedure.

[4] = Accelerated stability at 40±2° C. and 75±5% relative humidity for 6 months; conditions: 75±5% RH
Procedure: The purity of samples after stability test was determined by HPLC, the water content of samples after stability test was determined by Karl Fischer titration, and the crystal form of samples after stability test was determined by XRPD.

[5] = Hygroscopicity on storage at 25 degrees and 80% relative humidity for 24 hours; type: physicochemical; conditions: 25 degrees

## CCCCC[C@H](O)CC[C@@H]1[C@H]2Cc3cccc(OCC(=O)O)c3C[C@H]2C[C@H]1O [Form A, Treprostinil sodium salt]
[1]
  Crystal form conversion: converted into Form C

## CCCCC[C@H](O)CC[C@@H]1[C@H]2Cc3cccc(OCC(=O)O)c3C[C@H]2C[C@H]1O [Treprostinil free acid, Treprostinil]
[2]
  solubility at 30 min: < 0.1 mg/mL
  Dissolution observed in water: insoluble

## CCCCC[C@H](O)CC[C@@H]1[C@H]2Cc3cccc(OCC(=O)[O-])c3C[C@H]2C[C@H]1O.[Na+] [Treprostinil sodium salt]
[3]; 40.0 RH % / 25° C.
  Water content: 18.6 wt %
[3]; 45.0 RH % / 25° C.
  Water content: 18.7 wt %
[3]; 50.0 RH % / 25° C.
  Water content: 18.7 wt %
[3]; 55.0 RH % / 25° C.
  Water content: 18.8 wt %
[3]; 60.0 RH % / 25° C.
  Water content: 18.8 wt %
[3]; 65.0 RH % / 25° C.
  Water content: 18.9 wt %
[3]; 70.0 RH % / 25° C.
  Water content: 18.9 wt %
[3]; 75.0 RH % / 25° C.
  Water content: 19.0 wt %
[3]; 80.0 RH % / 25° C.
  Water content: 19.7 wt %
[3]; 85.0 RH % / 25° C.
  Water content: 19.9 wt %
[3]; 90.0 RH % / 25° C.
  Water content: 20.5 wt %
[3]; 95.0 RH % / 25° C.
  Water content: 22.6 wt %
[3]; relative humidity 40% to 80%
  Hygroscopicity according to the definition in European Pharmacopoeia: slight hygroscopicity
[3]; relative humidity increased from 40% to 80%
  Increasing value of the water content, i.e., hygroscopicity: 1.1 wt %
[4]; 0 day
  Appearance: Off-white
  Purity (HPLC) after stability test: 99.97%
  Water (Karl Fischer) after stability test: 20.1%
[4]; 1 month
  Appearance: Off-White
  Purity (HPLC) after stability test: 99.97%
  Water (Karl Fischer) after stability test: 20.4%
[4]; 3 months
  Appearance: Off-white
  Purity (HPLC) after stability test: 99.96%
  Water (Karl Fischer) after stability test: 20.0%
[4]; 6 months
  Appearance: Off-white
  Chemical stability and solid-state stability: excellent chemical stability and solid-state stability
  Purity (HPLC) after stability test: 99.98%
  Water (Karl Fischer) after stability test: 20.2%
[2]
  solubility at 30 min: > 100 mg/mL
  Dissolution observed in water: completely dissolved
[5]
  Behaviour of the solid on humid storage: deliquesced into a viscous solution
  Hygroscopicity: extremely hygroscopic
